Assay results as given in ChEMBL document CHEMBL4507291 (2021).

Tests used:
[1] = molecular target: Atypical kinase COQ8B, mitochondrial (Homo sapiens) (UniProt Q96D53)
[2] = molecular target: RAC-alpha serine/threonine-protein kinase (Homo sapiens) (UniProt P31749)
[3] = molecular target: Death-associated protein kinase 1 (Homo sapiens) (UniProt P53355)
[4] = tested on: Epidermal growth factor receptor (Homo sapiens), P00533 [G719C]
[5] = tested on: Epidermal growth factor receptor (Homo sapiens), P00533 [G719S]
[6] = tested on: Epidermal growth factor receptor (Homo sapiens), P00533 [UNDEFINED MUTATION]
[7] = molecular target: Mitogen-activated protein kinase kinase kinase kinase 1 (Homo sapiens) (UniProt Q92918)
[8] = molecular target: T1, Inhibitor of nuclear factor kappa-B kinase subunit beta (Homo sapiens) (UniProt O14920)
T1 sequence (whole entry): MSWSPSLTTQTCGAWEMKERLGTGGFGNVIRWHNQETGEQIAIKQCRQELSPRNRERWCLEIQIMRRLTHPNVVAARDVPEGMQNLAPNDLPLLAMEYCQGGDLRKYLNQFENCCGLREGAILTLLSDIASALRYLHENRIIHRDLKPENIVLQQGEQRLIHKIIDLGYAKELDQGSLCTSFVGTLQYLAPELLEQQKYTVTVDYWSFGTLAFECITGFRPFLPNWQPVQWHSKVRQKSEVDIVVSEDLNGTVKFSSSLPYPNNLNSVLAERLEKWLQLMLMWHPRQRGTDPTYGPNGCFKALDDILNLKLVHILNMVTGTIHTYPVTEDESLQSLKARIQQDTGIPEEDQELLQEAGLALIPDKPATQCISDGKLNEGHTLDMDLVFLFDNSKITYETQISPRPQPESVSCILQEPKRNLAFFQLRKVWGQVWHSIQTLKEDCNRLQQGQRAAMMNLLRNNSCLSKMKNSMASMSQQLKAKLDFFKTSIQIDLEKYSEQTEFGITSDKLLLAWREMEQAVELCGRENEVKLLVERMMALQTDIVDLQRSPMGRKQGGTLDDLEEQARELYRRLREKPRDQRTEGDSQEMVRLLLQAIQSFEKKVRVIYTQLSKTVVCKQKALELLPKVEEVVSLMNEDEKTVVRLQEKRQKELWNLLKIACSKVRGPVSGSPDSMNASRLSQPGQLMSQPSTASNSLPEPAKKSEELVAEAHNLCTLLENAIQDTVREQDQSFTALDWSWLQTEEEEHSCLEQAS

[9] = molecular target: Interleukin-1 receptor-associated kinase 3 (Homo sapiens) (UniProt Q9Y616)
[10] = molecular target: LIM domain kinase 1 (Homo sapiens) (UniProt P53667)
[11] = molecular target: Mitogen-activated protein kinase kinase kinase kinase 3 (Homo sapiens) (UniProt Q8IVH8)
[12] = molecular target: Myosin light chain kinase (Homo sapiens) (UniProt Q32MK0)
[13] = molecular target: Serine/threonine-protein kinase Nek5 (Homo sapiens) (UniProt Q6P3R8)
[14] = molecular target: Cyclin-dependent kinase 2 homolog (Plasmodium falciparum (isolate 3D7)) (UniProt P61075)
[15] = molecular target: Phosphatidylinositol 4,5-bisphosphate 3-kinase catalytic subunit beta isoform (Homo sapiens) (UniProt P42338)
[16] = molecular target: Phosphatidylinositol 4-kinase beta (Homo sapiens) (UniProt Q9UBF8)
[17] = molecular target: Serine/threonine-protein kinase PLK1 (Homo sapiens) (UniProt P53350)
[18] = molecular target: Proto-oncogene tyrosine-protein kinase receptor Ret (Homo sapiens) (UniProt P07949)
[19] = molecular target: Rho-associated protein kinase 1 (Homo sapiens) (UniProt Q13464)
[20] = molecular target: Rho-associated protein kinase 2 (Homo sapiens) (UniProt O75116)
[21] = molecular target: STE20-like serine/threonine-protein kinase (Homo sapiens) (UniProt Q9H2G2)
[22] = molecular target: Angiopoietin-1 receptor (Homo sapiens) (UniProt Q02763)
[23] = molecular target: Serine/threonine-protein kinase tousled-like 2 (Homo sapiens) (UniProt Q86UE8)
[24] = molecular target: Sodium-dependent serotonin transporter (Homo sapiens) (UniProt P31645); conditions: Compound concentration 10.0 uM
[25] = molecular target: T2, Muscarinic acetylcholine receptor M4 (Homo sapiens) (UniProt P08173); conditions: Compound concentration 10.0 uM
T2 sequence (whole entry): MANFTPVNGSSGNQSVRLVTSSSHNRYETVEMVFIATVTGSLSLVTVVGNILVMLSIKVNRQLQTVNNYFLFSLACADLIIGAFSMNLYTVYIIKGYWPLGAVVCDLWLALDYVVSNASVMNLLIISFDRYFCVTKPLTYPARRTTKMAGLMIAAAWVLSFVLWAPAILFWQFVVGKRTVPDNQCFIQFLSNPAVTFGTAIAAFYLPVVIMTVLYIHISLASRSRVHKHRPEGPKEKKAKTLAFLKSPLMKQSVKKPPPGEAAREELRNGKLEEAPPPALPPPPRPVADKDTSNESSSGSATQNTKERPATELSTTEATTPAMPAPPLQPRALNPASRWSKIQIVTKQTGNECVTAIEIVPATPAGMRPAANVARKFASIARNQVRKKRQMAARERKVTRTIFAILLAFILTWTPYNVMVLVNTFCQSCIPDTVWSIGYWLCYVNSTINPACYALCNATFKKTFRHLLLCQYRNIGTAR

[26] = molecular target: Beta-3 adrenergic receptor (Homo sapiens) (UniProt P13945); conditions: Compound concentration 10.0 uM
[27] = Compound concentration 100.0 nM
[28] = Compound concentration 1000.0 nM

Chain of Cyclin-dependent kinase 2 homolog (Plasmodium falciparum (isolate 3D7)) (P61075 whole entry, canonical isoform): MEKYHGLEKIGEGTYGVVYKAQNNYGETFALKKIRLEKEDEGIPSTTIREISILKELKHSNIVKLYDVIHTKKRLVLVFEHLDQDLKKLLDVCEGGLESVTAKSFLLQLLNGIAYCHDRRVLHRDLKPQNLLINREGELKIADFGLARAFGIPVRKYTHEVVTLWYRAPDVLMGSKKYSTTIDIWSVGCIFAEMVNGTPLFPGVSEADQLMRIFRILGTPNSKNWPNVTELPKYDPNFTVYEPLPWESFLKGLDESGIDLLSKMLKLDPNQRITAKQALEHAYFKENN
Chain of Interleukin-1 receptor-associated kinase 3 (Homo sapiens) (Q9Y616 whole entry, the tested form may be a part): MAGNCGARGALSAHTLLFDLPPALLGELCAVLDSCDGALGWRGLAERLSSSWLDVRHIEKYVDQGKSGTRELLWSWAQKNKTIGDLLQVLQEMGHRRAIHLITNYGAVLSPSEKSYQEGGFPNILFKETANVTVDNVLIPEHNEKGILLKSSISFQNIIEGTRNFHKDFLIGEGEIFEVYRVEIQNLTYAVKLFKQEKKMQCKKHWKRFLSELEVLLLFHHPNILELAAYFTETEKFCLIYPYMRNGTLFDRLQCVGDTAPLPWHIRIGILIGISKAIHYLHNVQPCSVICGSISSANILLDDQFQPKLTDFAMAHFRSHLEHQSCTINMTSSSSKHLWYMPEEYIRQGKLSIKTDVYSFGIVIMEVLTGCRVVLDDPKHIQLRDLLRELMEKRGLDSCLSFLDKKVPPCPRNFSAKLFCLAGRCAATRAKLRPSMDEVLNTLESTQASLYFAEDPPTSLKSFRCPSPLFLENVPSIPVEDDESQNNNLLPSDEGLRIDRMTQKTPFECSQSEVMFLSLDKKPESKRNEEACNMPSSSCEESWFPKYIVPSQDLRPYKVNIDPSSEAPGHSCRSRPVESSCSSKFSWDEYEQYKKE
Chain of Sodium-dependent serotonin transporter (Homo sapiens) (P31645 whole entry, looked up): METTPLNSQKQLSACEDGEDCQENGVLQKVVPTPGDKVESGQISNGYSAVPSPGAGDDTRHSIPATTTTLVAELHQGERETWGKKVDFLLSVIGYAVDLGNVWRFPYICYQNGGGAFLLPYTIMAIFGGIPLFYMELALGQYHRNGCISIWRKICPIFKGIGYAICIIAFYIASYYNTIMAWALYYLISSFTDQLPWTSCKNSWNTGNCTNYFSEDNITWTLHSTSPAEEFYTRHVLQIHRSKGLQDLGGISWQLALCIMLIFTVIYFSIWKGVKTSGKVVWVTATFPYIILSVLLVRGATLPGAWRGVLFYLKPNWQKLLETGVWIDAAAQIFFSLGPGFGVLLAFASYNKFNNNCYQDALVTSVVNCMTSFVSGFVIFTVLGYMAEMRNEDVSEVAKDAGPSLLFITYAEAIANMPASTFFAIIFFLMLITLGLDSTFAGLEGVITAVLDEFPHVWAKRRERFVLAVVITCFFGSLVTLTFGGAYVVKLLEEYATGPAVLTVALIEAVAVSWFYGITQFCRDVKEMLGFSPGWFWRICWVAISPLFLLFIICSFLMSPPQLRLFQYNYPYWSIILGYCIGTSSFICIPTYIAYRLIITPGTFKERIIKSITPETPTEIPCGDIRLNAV
Chain of Myosin light chain kinase (Homo sapiens) (Q32MK0 whole entry): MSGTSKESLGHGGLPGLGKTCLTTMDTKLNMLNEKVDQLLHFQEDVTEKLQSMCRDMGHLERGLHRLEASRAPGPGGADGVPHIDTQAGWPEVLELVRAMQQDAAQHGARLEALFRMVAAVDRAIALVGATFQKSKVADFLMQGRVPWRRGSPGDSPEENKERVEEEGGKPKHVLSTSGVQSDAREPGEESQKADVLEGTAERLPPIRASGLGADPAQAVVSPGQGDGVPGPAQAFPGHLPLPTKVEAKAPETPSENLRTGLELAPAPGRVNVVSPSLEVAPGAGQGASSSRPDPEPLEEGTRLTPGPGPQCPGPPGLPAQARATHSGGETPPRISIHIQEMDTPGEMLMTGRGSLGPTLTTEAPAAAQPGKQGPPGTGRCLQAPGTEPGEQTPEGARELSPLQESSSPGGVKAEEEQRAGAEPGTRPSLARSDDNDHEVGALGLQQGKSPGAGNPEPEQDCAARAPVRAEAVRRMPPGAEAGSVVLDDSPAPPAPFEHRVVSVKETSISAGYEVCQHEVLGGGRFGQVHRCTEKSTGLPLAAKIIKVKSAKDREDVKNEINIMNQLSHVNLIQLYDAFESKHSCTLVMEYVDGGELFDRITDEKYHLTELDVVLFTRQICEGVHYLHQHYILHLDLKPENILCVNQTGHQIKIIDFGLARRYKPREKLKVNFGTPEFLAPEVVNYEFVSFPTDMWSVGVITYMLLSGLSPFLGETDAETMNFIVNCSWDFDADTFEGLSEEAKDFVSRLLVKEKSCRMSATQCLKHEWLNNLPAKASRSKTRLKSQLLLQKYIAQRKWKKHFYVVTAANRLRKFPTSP
Chain of Rho-associated protein kinase 1 (Homo sapiens) (Q13464 2-1354 limits assumed): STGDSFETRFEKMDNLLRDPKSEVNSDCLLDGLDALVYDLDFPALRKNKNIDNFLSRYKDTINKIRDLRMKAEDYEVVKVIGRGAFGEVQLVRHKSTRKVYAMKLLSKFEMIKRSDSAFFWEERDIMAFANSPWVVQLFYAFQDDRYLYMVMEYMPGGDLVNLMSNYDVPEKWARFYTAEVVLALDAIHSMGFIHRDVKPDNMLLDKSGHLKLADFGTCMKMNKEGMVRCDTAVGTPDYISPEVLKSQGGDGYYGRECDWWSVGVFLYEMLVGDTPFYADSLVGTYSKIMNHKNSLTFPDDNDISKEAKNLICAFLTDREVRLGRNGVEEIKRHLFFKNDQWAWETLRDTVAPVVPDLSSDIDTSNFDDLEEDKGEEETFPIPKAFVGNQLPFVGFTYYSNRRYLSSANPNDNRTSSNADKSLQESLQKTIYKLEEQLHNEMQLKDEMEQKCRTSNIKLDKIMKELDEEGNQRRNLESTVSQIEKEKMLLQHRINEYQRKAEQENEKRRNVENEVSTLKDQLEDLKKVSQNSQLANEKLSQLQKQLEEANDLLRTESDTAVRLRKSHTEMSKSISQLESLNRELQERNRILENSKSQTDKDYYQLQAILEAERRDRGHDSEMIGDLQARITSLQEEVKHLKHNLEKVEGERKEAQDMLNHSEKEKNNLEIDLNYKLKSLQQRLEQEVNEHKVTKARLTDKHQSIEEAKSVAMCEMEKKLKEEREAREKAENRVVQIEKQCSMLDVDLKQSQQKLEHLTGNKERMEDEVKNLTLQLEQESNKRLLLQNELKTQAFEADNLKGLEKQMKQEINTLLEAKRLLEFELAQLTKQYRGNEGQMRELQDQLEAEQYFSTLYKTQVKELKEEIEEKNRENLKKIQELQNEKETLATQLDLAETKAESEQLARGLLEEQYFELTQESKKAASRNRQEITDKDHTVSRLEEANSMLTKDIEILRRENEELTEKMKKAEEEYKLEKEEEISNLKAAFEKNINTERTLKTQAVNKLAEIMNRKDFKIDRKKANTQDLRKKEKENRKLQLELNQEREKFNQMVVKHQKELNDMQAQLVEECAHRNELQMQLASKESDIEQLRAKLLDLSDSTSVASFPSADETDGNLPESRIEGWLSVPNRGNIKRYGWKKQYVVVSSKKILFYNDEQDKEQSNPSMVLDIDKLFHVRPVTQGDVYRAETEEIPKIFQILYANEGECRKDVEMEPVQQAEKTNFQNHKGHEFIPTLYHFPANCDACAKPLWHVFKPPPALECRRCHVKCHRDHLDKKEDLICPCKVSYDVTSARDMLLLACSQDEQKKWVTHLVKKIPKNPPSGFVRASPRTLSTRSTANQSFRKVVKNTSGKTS
Chain of Phosphatidylinositol 4,5-bisphosphate 3-kinase catalytic subunit beta isoform (Homo sapiens) (P42338 whole entry, looked up, canonical isoform): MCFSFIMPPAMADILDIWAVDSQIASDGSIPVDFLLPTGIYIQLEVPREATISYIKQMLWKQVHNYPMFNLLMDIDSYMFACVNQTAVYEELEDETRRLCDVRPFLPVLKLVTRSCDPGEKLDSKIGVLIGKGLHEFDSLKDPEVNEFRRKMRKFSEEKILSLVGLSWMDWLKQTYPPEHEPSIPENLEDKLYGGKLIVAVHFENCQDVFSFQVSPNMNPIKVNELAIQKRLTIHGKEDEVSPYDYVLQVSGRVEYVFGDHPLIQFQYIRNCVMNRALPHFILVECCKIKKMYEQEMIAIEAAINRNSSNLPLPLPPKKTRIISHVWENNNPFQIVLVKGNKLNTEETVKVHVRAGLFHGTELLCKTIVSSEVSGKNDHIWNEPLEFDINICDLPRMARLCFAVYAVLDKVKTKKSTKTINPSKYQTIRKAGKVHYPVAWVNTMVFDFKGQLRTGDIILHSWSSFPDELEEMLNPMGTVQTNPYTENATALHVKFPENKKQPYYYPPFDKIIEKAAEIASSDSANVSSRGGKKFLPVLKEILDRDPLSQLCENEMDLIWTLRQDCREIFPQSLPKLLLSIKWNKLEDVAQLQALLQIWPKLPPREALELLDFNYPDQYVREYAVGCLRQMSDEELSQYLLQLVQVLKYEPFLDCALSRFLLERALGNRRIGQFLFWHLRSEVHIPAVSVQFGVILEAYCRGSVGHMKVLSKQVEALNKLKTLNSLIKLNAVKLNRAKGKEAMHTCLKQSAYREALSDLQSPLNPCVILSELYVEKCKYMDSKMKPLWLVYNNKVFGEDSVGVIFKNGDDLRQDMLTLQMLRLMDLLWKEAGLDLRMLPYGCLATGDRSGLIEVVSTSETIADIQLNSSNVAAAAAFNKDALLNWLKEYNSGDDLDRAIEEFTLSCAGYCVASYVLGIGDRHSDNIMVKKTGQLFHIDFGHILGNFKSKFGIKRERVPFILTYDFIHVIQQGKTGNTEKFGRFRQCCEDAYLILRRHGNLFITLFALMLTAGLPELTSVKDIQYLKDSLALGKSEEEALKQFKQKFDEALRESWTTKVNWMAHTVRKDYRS

C[C@@H]1CN(c2cc(-c3n[nH]c4ccc(OC5(C)CC5)cc34)ncn2)C[C@H](C)O1 [MLi-2]
inactive: residual activity [1, 27] 72% | residual activity [2, 27] 87% | residual activity [3, 27] 93% | residual activity [4, 27] 63% | residual activity [5, 27] 59% | residual activity [6, 27] 53% | residual activity [7, 27] 84% | residual activity [8, 27] 84% | residual activity [9, 27] 94% | residual activity [10, 27] 86% | residual activity [11, 27] 88% | residual activity [12, 27] 87% | residual activity [13, 27] 100% | residual activity [14, 27] 80% | residual activity [15, 27] 59% | residual activity [16, 27] 100% | residual activity [17, 27] 68% | residual activity [18, 27] 100% | residual activity [19, 27] 80% | residual activity [20, 27] 89% | residual activity [21, 27] 98% | residual activity [22, 27] 100% | residual activity [23, 27] 100% | inhibition [24] -2.29% | inhibition [25] -4.79% | inhibition [26] -5.99%

C[C@@H]1CN(c2cc(-c3nn(C)c4ccc(OC5(C)CC5)cc34)ncn2)C[C@H](C)O1 [MLi-2-NC]
inactive: residual activity [1, 28] 100% | residual activity [2, 28] 100% | residual activity [3, 28] 100% | residual activity [4, 28] 76% | residual activity [5, 28] 72% | residual activity [6, 28] 67% | residual activity [7, 28] 100% | residual activity [8, 28] 76% | residual activity [9, 28] 89% | residual activity [10, 28] 95% | residual activity [11, 28] 100% | residual activity [12, 28] 97% | residual activity [13, 28] 100% | residual activity [14, 28] 94% | residual activity [15, 28] 100% | residual activity [16, 28] 89% | residual activity [17, 28] 74% | residual activity [18, 28] 96% | residual activity [19, 28] 100% | residual activity [20, 28] 97% | residual activity [21, 28] 100% | residual activity [22, 28] 94% | residual activity [23, 28] 97% | inhibition [24] -3.49% | inhibition [25] 10.6% | inhibition [26] 11.8%
